The results in this text go back to the COVID Moonshot data (paper PMC7615835).

pIC50: −log10 of the molar value. Where “and” joins values, the source holds several entries; their conditions need not be identical. Equal values may be shown once.

This assay has as its target SARS-CoV-2 Main Protease (SARS-CoV-2) (UniProt P0DTD1).
What is called pIC50 is −log10 of the IC50, conventionally taken in molar units. Low values mean a large IC50, high ones a small IC50. In turn, `Cc1ccc(S(=O)(=O)CNC(=O)C(c2cccnc2)N(C(=O)c2cocn2)c2ccc(C(C)(C)C)cc2)cc1` (stereo unspecified) had a pIC50 of 4.20. `Cn1c(=O)oc2cc(S(=O)(=O)Nc3ccc4ncccc4c3)ccc21` had a pIC50 of less than 4.00. The same measure for `O=C(Cc1cc(Cl)cc(NCCc2ccccc2C(F)(F)F)c1)Nc1cncc2ccccc12`: 5.53; for `C[C@@H]1NC(=O)c2ccc(Cl)cc2[C@@H]1C(=O)Nc1cncc2ccccc12` (stereo in doubt): 6.34. For the compound `Cn1nncc1C(=O)N1Cc2ccc(Cl)cc2C(C(=O)Nc2cncc3ccccc23)C1` (stereo unspecified), the pIC50 is 6.40. Next, `CC(C)(C)c1ccc(N(C(=O)c2ccco2)C(C(=O)N2CCOCC2)c2cccnc2)cc1` (stereo unspecified): 4.39; `O=C(NCCc1cccc(F)c1)C(c1cccnc1)N(C(=O)c1ccco1)[C@H]1C[C@H](c2cc(F)cc(F)c2)C1` (stereo partly specified): less than 4.00; `O=C(NCCc1cccc(F)c1)C(c1cccnc1)N(C(=O)c1cocn1)c1cnn(-c2ccccc2)c1` (stereo unspecified): 5.53.

Compound `COC(=O)C(C)(CN(C(=O)c1ccco1)C(C(=O)NCCc1cccc(F)c1)c1cccnc1)c1ccccc1F` (stereo unspecified) gave a pIC50 of less than 4.00. Next, `NS(=O)(=O)c1ccc2c(c1)CN(CC1CCN(C(=O)CCl)CC1)CC2`: 4.71. The same measure for `COc1ccc2cncc(NC(=O)C3CCNc4cc(Cl)c(Cl)cc43)c2c1` (stereo unspecified): 6.88; for `O=C(CCl)N1CCN(C(c2ccccc2)C2CCOCC2)CC1` (stereo unspecified): 4.55 and 4.82.

As to `O=C(Nc1cncc2ccccc12)[C@@H]1COc2ccc(Cl)cc21` (stereo in doubt), the pIC50 is 6.28 and 6.17 and 6.32. `O=C(Cc1cccc(Cl)c1)Nc1cncc2c1CCCN2` gave a negative logarithm of the IC50 (pIC50) of 5.14. Next, `CC(C)(C)N(Cc1ccccc1)c1cc(Cl)cc(CC(=O)Nc2cncc3ccccc23)c1`: 5.72. For the compound `CS(=O)(=O)Nc1ccc2cncc(NC(=O)C3CCS(=O)(=O)c4ccc(Cl)cc43)c2c1` (stereo unspecified), the negative-log IC50 (pIC50) is 6.69. On to `Cn1cncc1C(=O)N(c1ccc(C(C)(C)C)cc1)C(C(=O)NCCc1cccc(F)c1)c1cccnc1` (stereo unspecified), for which the pIC50 is less than 4.00.

For the compound `CC(C)(C)c1ccc(N(C(=O)c2cn3ccccc3n2)C(C(=O)NCCc2cccc(F)c2)c2cccnc2)cc1` (stereo unspecified), the negative-log IC50 (pIC50) was 4.74. The compound `O=C(Cc1cc(Cl)cc(Nc2ccnc(Br)c2)c1)Nc1cncc2ccccc12` showed a pIC50 of 5.56. Turning to `CC1(C(=O)Nc2cncc3ccccc23)CNC(=O)c2ccc(Cl)cc21` (stereo unspecified), the pIC50 was 6.06. Next, `N#CC1(CS(=O)(=O)N2Cc3ccc(Cl)cc3[C@H](C(=O)Nc3cncc4ccccc34)C2)CNC1` (stereo in doubt): 7.25 and 7.07; `COc1ccc2c(NC(=O)Cc3cccc(Cl)c3)[nH]nc2c1`: less than 4.00; `Cc1ccncc1NC(=O)C(CO)c1cccc(Cl)c1` (stereo unspecified): less than 4.00.

On to `O=C(Nc1cccc2cc[nH]c12)c1cccc2[nH]c(=O)oc12`, for which the pIC50 is less than 4.00. For the compound `O=C(Cc1cccc(Cl)c1)Nn1cnc2ccccc21`, the pIC50 is 5.08. Next, `COc1ccccc1OCC(C)NC(=O)c1cc(=O)[nH]c2cc(F)ccc12` (stereo unspecified): 4.39 and 4.57; `COc1ccc(S(=O)(=O)N2CCN(C(=O)CCl)CC2)cc1`: 4.56. `O=C(NCCc1cccc(F)c1)C(c1cccnc1)N(C(=O)c1cocn1)C1CCc2ccccc21` (stereo unspecified): the pIC50 is less than 4.00.

Compound `CNC(=O)CN1CC(C(=O)Nc2cncc3cccc(C)c23)c2cc(Cl)ccc2C1=O` (stereo unspecified) had a pIC50 of 6.44.

Regarding `O=C(c1cc(=O)[nH]c2ccccc12)N1CCN(Cc2cccc(C(F)(F)F)c2)CC1`, the pIC50 was 4.47. `CC(C)(C)c1ccc(N(C(=O)c2ccc(Cl)o2)C(C(=O)NCCc2cccc(F)c2)c2cccnc2)cc1` (stereo unspecified): the pIC50 is 6.50.

`CS(=O)(=O)N1Cc2cc(F)c(Cl)cc2C(C(=O)Nc2cncc3ccccc23)C1` (stereo unspecified) gave a pIC50 of 6.59. Compound `CC(C)(C)c1ccc(N(C(=O)c2cocn2)C(C(=O)NC2CC(F)(F)C2)c2cccnc2)cc1` (stereo unspecified) showed a pIC50 of 5.63. The same measure for `Cc1c(N)cncc1NC(=O)Cc1cccc(C#N)c1`: 4.79; for `CC(C)S(=O)(=O)Nc1ccc2c(NC(=O)C3CN(S(=O)(=O)CC4(C#N)CC4)Cc4ccc(Cl)cc43)cncc2c1` (stereo unspecified): 7.05; for `COc1cccc(N2CCN(C(=O)c3cc(=O)[nH]c4ccccc34)CC2)c1`: 5.12. The same measure for `COc1cc(OC)[n+](C)c(C#N)n1`: less than 4.00; for `Cc1ccncc1N1CCC(c2cccc(Cl)c2)C1=O` (stereo unspecified): 4.35; for `C=CC(=O)N(c1ccc(C(C)(C)C)cc1)C(C(=O)NCc1ccccc1)c1cccnc1` (stereo unspecified): 4.48. Turning to `Cc1nccn1-c1ccc(Nc2cc(Cl)cc(CC(=O)Nc3cncc4ccccc34)c2)cc1`, the pIC50 is 5.61. The same measure for `CN1Cc2c(Cl)cc(Cl)cc2[C@H](c2cccc(S(=O)(=O)NCCOCCOCCNC(=O)NCCCCNC(=O)NCCOCCOCCNS(=O)(=O)c3cccc([C@@H]4CN(C)Cc5c(Cl)cc(Cl)cc54)c3)c2)C1` (stereo in doubt): less than 4.00. For `NC(=O)CN1Cc2ccc(Cl)cc2C(C(=O)Nc2cncc3ccccc23)C1` (stereo unspecified), the pIC50 is 6.96 and 6.93 and 6.89.

Regarding `O=C(Nc1cncc2ccccc12)C1CN(S(=O)(=O)NC2CCC2)Cc2ccc(Cl)cc21` (stereo unspecified), the pIC50 was 7.00 and 6.88 and 6.90.

On to `O=C(Cc1cccc(Cl)c1)Nc1noc2ccccc12`, for which the pIC50 was less than 4.00. Next, `O=C(Cc1cc(Cl)cc(Nc2ccc(Br)c([N+](=O)[O-])c2)c1)Nc1cncc2ccccc12`: 5.69. In turn, `O=C(Cc1cc(Cl)cc(N(C2CCCCC2)C2CCCCC2)c1)Nc1cncc2ccccc12` showed a pIC50 of 5.64.

`O=C(Cc1cc(Cl)cc(NCc2ccc([N+](=O)[O-])cc2)c1)Nc1cncc2ccccc12` gave a negative logarithm of the IC50 (pIC50) of 5.74.

The compound `O=C(Cc1cc(Cl)cc(Nc2ccc(-c3ccccc3)cc2)c1)Nc1cncc2ccccc12` gave a pIC50 of 5.69. Compound `CC(C)(C)c1ccc(N(C(=O)C2CCCN2)C(C(=O)NCCc2cccc(F)c2)c2cccnc2)cc1` (stereo unspecified) had a pIC50 of less than 4.00.

`CSc1ccc(CN(C(=O)c2ccco2)C(C(=O)NCCc2cccc(F)c2)c2cccnc2)cc1C#N` (stereo unspecified) had a pIC50 of 4.26. `Nc1nc2[nH]cnc2c(=O)n1-c1cc(Cl)cc(CC(=O)Nc2cncc3ccccc23)c1` gave a pIC50 of 5.73.

`CC1CN(Cc2cccc(Cl)c2)CCN1C(=O)CCl` (stereo unspecified) showed a pIC50 of 5.11. The same measure for `CC1(CS(=O)(=O)N2Cc3ccc(Cl)cc3C3(CCN(c4cncc5cc(S(C)(=O)=O)ccc45)C3=O)C2)CC1` (stereo unspecified): 6.81. Regarding `O=C(NCCc1cccc(F)c1)C(c1cccnc1)N(C(=O)c1cnc[nH]1)C1CCN(c2ccccc2F)C1` (stereo unspecified), the pIC50 is less than 4.00.

Take `O=C(CCl)N1CCN(Cc2cc(O)cc(Cl)c2)CC1`: the pIC50 is 4.89. The same measure for `O=C(Cc1cc(Cl)cc(Nc2cc(C(F)(F)F)ccn2)c1)Nc1cncc2ccccc12`: 5.74. Compound `O=C(Oc1cncc2ccccc12)C1CCOc2ccc(Cl)cc21` (stereo unspecified) showed a pIC50 of 6.28. For the compound `CC(C)(C)c1cc(N(C(=O)c2cocn2)C(C(=O)NCCc2cccc(F)c2)c2cccnc2)no1` (stereo unspecified), the pIC50 was 4.29. Next, `O=C(Nc1cncc2c1CCCC2)C1CNS(=O)(=O)c2ccc(Cl)cc21` (stereo unspecified): 6.34; `C=CC(=O)N(c1cc(C(C)(C)C)on1)C(C(=O)Nc1cccc(CC)c1)c1cccnc1` (stereo unspecified): less than 4.00. In turn, `C=CC(=O)N(c1ccc(C(C)(C)C)cc1)C(C(=O)Nc1ccc(OC)cc1OC)c1cccnc1` (stereo unspecified) had a pIC50 of 5.19.
